Experimental data as given in patent publication US20240190862A1 (AMGEN INC., priority 2019, published 2024).
Like-named read-outs stand apart in the source and are kept apart here.

Experiments:
[1] = target: GDP-bound KRAS protein (aa 1-169) G12D/C118A (Homo sapiens (Human), UniProt P01116, C118A/G12D); assay: Coupled Nucleotide Exchange Assay (KRAS G12D); type: biochemical
Procedure: (§1) Coupled Nucleotide Exchange Assay: Purified GDP-bound KRAS protein (aa 1-169), containing either G12C or G12D, as well as C118A amino acid substitutions and an N-terminal His-tag, was pre-incubated in assay buffer (25 mM HEPES pH 7.4, 10 mM MgCl2, and 0.01% Triton X-100) with a compound dose-response titration for either 5 min or 20 hours (see Table 15). Following compound pre-incubation, purified SOS protein (aa 564-1049) and GTP (Roche 10106399001) were added to the assay wells and incubated for an additional 30 min. To determine the extent of inhibition of SOS-mediated nucleotide exchange, purified GST-tagged cRAF (aa 1-149), nickel chelate AlphaLISA acceptor beads (PerkinElmer AL108R), and AlphaScreen glutathione donor beads (PerkinElmer 6765302) were added to the assay wells and incubated for 10 minutes. The assay plates were then read on a PerkinElmer EnVision Multilabel Reader, using AlphaScreen® technology, and data were analyzed using a 4-parameter logistic model to calculate IC50 values.

[2] = target: GDP-bound KRAS protein (aa 1-169) G12C/C118A (Homo sapiens (Human), UniProt P01116, C118A/G12C); assay: Coupled Nucleotide Exchange Assay (KRAS G12C); type: biochemical
Procedure: as §1

[3] = 20 h compound pre-incubation, read-out: GDP KRAS G12D 20 h Coupled Exchange IC50 IP
[4] = 5 min compound pre-incubation, read-out: GDP KRAS G12C 5 min Coupled Exchange IC50 IP
[5] = 20 h compound pre-incubation, read-out: GDP KRAS G12C 20 h Coupled Exchange IC50 IP

Chain of GDP-bound KRAS protein (aa 1-169) G12D/C118A (P01116 other isoform, or with tags, fused parts or gaps G12D/C118A): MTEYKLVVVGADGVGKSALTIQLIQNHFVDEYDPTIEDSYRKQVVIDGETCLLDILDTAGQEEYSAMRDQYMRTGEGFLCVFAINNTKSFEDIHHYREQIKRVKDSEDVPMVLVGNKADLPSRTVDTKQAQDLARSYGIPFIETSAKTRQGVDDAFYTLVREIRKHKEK
Chain of GDP-bound KRAS protein (aa 1-169) G12C/C118A (P01116 other isoform, or with tags, fused parts or gaps G12C/C118A): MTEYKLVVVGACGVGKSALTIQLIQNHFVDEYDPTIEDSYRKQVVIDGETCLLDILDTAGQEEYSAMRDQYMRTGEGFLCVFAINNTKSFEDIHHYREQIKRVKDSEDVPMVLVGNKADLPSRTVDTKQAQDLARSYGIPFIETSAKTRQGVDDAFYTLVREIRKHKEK

`Cc1ccnc(C(C)C)c1-n1c(=O)nc(N2CCN(C(=O)[C@H]3O[C@@H]3C)C[C@@H]2C)c2cc(Cl)c(-c3ccccc3F)nc21` (mixture of isomers) [Example 17, 6-Chloro-7-(2-fluorophenyl)-1-(2-isopropyl-4-methylpyridin-3-yl)-4-((S)-2-methyl-4-((2R,3S)-3-methyloxirane-2-carbonyl)piperazin-1-yl)pyrido[2,3-d]pyrimidin-2(1H)-one and 6-chloro-7-(2-fluorophenyl)-1-(2-isopropyl-4-methylpyridin-3-yl)-4-((S)-2-methyl-4-((2S,3R)-3-methyloxirane-2-carbonyl)piperazin-1-yl)pyrido[2,3-d]pyrimidin-2(1H)-one] showed an IC50 [1, 3] greater than 250 µM, an IC50 [2, 4] of 17.8 µM and an IC50 [2, 5] of 0.096 µM.

`Cc1ccnc(C(C)C)c1-n1c(=O)nc(N2CCN(C(=O)CCl)C[C@@H]2C)c2cc(Cl)c(-c3ccccc3F)nc21` [Example 1, (S)-6-Chloro-4-(4-(2-chloroacetyl)-2-methylpiperazin-1-yl)-7-(2-fluorophenyl)-1-(2-isopropyl-4-methylpyridin-3-yl)pyrido[2,3-d]pyrimidin-2(1H)-one] gave an IC50 [1, 3] greater than 250 µM, an IC50 [2, 4] of 1.29 µM and an IC50 [2, 5] of 0.026 µM.

Work on `Cc1ccnc(C(C)C)c1-n1c(=O)nc(N2CCN(C(=O)CF)C[C@@H]2C)c2cc(Cl)c(-c3ccccc3F)nc21` [Example 2, (S)-6-Chloro-4-(4-(2-fluoroacetyl)-2-methylpiperazin-1-yl)-7-(2-fluorophenyl)-1-(2-isopropyl-4-methylpyridin-3-yl)pyrido[2,3-d]pyrimidin-2(1H)-one] yielded an IC50 [1] greater than 250 µM, an IC50 ([2]; GDP KRAS G12C 5 min Coupled Exchange IC50 IP, 5 min compound pre-incubation) greater than 250 µM and an IC50 ([2]; GDP KRAS G12C 20 h Coupled Exchange IC50 IP, 20 h compound pre-incubation) of 13.4 µM.

`Cc1ccnc(C(C)C)c1-n1c(=O)nc(N2CCN(C(=O)COc3ccccc3)C[C@@H]2C)c2cc(Cl)c(-c3ccccc3F)nc21` [Example 6, (S)-6-Chloro-7-(2-fluorophenyl)-1-(2-isopropyl-4-methylpyridin-3-yl)-4-(2-methyl-4-(2-phenoxyacetyl)piperazin-1-yl)pyrido[2,3-d]pyrimidin-2(1H)-one] gave an IC50 [1, 3] greater than 250 µM, an IC50 [2, 4] greater than 250 µM and an IC50 [2, 5] of 131 µM.

Work on `Cc1ccnc(C(C)C)c1-n1c(=O)nc(N2CCN(C(=O)COc3c(Cl)cccc3Cl)C[C@@H]2C)c2cc(Cl)c(-c3ccccc3F)nc21` [Example 7, (S)-6-Chloro-4-(4-(2-(2,6-dichlorophenoxy)acetyl)-2-methylpiperazin-1-yl)-7-(2-fluorophenyl)-1-(2-isopropyl-4-methylpyridin-3-yl)pyrido[2,3-d]pyrimidin-2(1H)-one] yielded an IC50 [1, 3] greater than 250 µM, an IC50 [2, 4] greater than 250 µM and an IC50 [2, 5] of 26.2 µM.

`Cc1ccnc(C(C)C)c1-n1c(=O)nc(N2CCN(C(=O)COc3c(F)c(F)cc(F)c3F)C[C@@H]2C)c2cc(Cl)c(-c3ccccc3F)nc21` [Example 9, (S)-6-chloro-7-(2-fluorophenyl)-1-(2-isopropyl-4-methylpyridin-3-yl)-4-(2-methyl-4-(2-(2,3,5,6-tetrafluorophenoxy)acetyl)piperazin-1-yl)pyrido[2,3-d]pyrimidin-2(1H)-one] showed an IC50 [1, 3] greater than 250 µM, an IC50 [2, 4] of 33.9 µM and an IC50 [2, 5] of 2.45 µM.

Compound `Cc1ccnc(C(C)C)c1-n1c(=O)nc(N2CCN(C(=O)COc3c(F)cc(F)cc3F)C[C@@H]2C)c2cc(Cl)c(-c3ccccc3F)nc21` [Example 11, (S)-6-Chloro-7-(2-fluorophenyl)-1-(2-isopropyl-4-methylpyridin-3-yl)-4-(2-methyl-4-(2-(2,4,6-trifluorophenoxy)acetyl)piperazin-1-yl)pyrido[2,3-d]pyrimidin-2(1H)-one] has an IC50 [1, 3] greater than 250 µM, an IC50 [2, 4] of 69.8 µM and an IC50 [2, 5] of 5.45 µM.

`Cc1ccnc(C(C)C)c1-n1c(=O)nc(N2CCN(C(=O)COc3cccc(F)c3F)C[C@@H]2C)c2cc(Cl)c(-c3ccccc3F)nc21` [Example 12, (S)-6-Chloro-7-(2-fluorophenyl)-1-(2-isopropyl-4-methylpyridin-3-yl)-4-(2-methyl-4-(2-(2,3-difluorophenoxy)acetyl)piperazin-1-yl)pyrido[2,3-d]pyrimidin-2(1H)-one] was tested, and the IC50 [1, 3] was greater than 250 µM, the IC50 [2, 4] was 35.7 µM and the IC50 [2, 5] was 2.02 µM.

With `Cc1ccnc(C(C)C)c1-n1c(=O)nc(N2CCN(C(=O)[C@H]3CN3)C[C@@H]2C)c2cc(Cl)c(-c3ccccc3F)nc21` [Example 14, 4-((S)-4-((R)-Aziridine-2-carbonyl)-2-methylpiperazin-1-yl)-6-chloro-7-(2-fluorophenyl)-1-(2-isopropyl-4-methylpyridin-3-yl)pyrido[2,3-d]pyrimidin-2(1H)-one] the IC50 [1, 3] was greater than 250 µM, the IC50 [2, 4] was 88.3 µM and the IC50 [2, 5] was 1.56 µM.

With `Cc1ccnc(C(C)C)c1-n1c(=O)nc(N2CCN(C(=O)[C@@H]3CO3)C[C@@H]2C)c2cc(Cl)c(-c3ccccc3F)nc21` [Example 15, 6-Chloro-7-(2-fluorophenyl)-1-(2-isopropyl-4-methylpyridin-3-yl)-4-((S)-2-methyl-4-((S)-oxirane-2-carbonyl)piperazin-1-yl)pyrido[2,3-d]pyrimidin-2(1H)-one] the IC50 [1, 3] was greater than 250 µM, the IC50 [2, 4] was 74.1 µM and the IC50 [2, 5] was 0.83 µM.

In the case of `CCOC(=O)[C@H]1O[C@@H]1C(=O)N1CCN(c2nc(=O)n(-c3c(C)ccnc3C(C)C)c3nc(-c4ccccc4F)c(Cl)cc23)[C@@H](C)C1` [Example 18, Ethyl (2S,3S)-3-((S)-4-(6-chloro-7-(2-fluorophenyl)-1-(2-isopropyl-4-methylpyridin-3-yl)-2-oxo-1,2-dihydropyrido[2,3-d]pyrimidin-4-yl)-3-methylpiperazine-1-carbonyl)oxirane-2-carboxylate], the IC50 [1, 3] is reported as greater than 250 µM, the IC50 [2, 4] is reported as 23.9 µM and the IC50 [2, 5] is reported as 0.53 µM.

Compound `Cc1ccnc(C(C)C)c1-n1c(=O)nc(N2CCN(C(=O)[C@@H]3O[C@H]3C(=O)O)C[C@@H]2C)c2cc(Cl)c(-c3ccccc3F)nc21` [Example 20, (2R,3R)-3-((S)-4-(6-chloro-7-(2-fluorophenyl)-1-(2-isopropyl-4-methylpyridin-3-yl)-2-oxo-1,2-dihydropyrido[2,3-d]pyrimidin-4-yl)-3-methylpiperazine-1-carbonyl)oxirane-2-carboxylic acid] has an IC50 [1, 3] greater than 250 µM and an IC50 [2, 5] of 1 µM.

Work on `Cc1ccnc(C(C)C)c1-n1c(=O)nc(N2CCN(C(=O)[C@@H]3O[C@H]3CN3CCCCC3)C[C@@H]2C)c2cc(Cl)c(-c3ccccc3F)nc21` [Example 21, 6-Chloro-7-(2-fluorophenyl)-1-(2-isopropyl-4-methylpyridin-3-yl)-4-((S)-2-methyl-4-((2R,3S)-3-(piperidin-1-ylmethyl)oxirane-2-carbonyl)piperazin-1-yl)pyrido[2,3-d]pyrimidin-2(1H)-one] yielded an IC50 [1, 3] greater than 250 µM, an IC50 [2, 4] of 1.12 µM and an IC50 [2, 5] of 0.005 µM.

With `Cc1ccnc(C(C)C)c1-n1c(=O)nc(N2CCN(C(=O)[C@@H]3O[C@H]3CO)C[C@@H]2C)c2cc(Cl)c(-c3ccccc3F)nc21` [Example 22, 6-Chloro-7-(2-fluorophenyl)-4-((S)-4-((2R,3S)-3-(hydroxymethyl)oxirane-2-carbonyl)-2-methylpiperazin-1-yl)-1-(2-isopropyl-4-methylpyridin-3-yl)pyrido[2,3-d]pyrimidin-2(1H)-one] the IC50 [1, 3] was greater than 250 µM, the IC50 [2, 4] was 6.26 µM and the IC50 [2, 5] was 0.064 µM.

In the case of `Cc1ccnc(C(C)C)c1-n1c(=O)nc(N2CCN(C(=O)C3CO3)[C@@H](CC#N)C2)c2cc(Cl)c(-c3ccccc3F)nc21` (stereo partly drawn) [Example 23, 2-((2S)-4-(6-Chloro-7-(2-fluorophenyl)-1-(2-isopropyl-4-methylpyridin-3-yl)-2-oxo-1,2-dihydropyrido[2,3-d]pyrimidin-4-yl)-1-(oxirane-2-carbonyl)piperazin-2-yl)acetonitrile], the IC50 [1, 3] is reported as greater than 250 µM, the IC50 [2, 4] is reported as greater than 250 µM and the IC50 [2, 5] is reported as 0.431 µM.

`Cc1ccnc(C(C)C)c1-n1c(=O)nc(N2CC3(CN(C(=O)C4CO4)C3)C2)c2cc(Cl)c(-c3ccccc3F)nc21` (stereo not shown) [Example 24, 6-Chloro-7-(2-fluorophenyl)-1-(2-isopropyl-4-methylpyridin-3-yl)-4-(6-(oxirane-2-carbonyl)-2,6-diazaspiro[3.3]heptan-2-yl)pyrido[2,3-d]pyrimidin-2(1H)-one] showed an IC50 [1, 3] greater than 250 µM, an IC50 [2, 4] of 222 µM and an IC50 [2, 5] of 41.6 µM.

`Cc1ccnc(C(C)C)c1-n1c(=O)nc(N2CCC3(CC2)CN(C(=O)[C@H]2CO2)C3)c2cc(Cl)c(-c3ccccc3F)nc21` [Example 25, (R)-6-chloro-7-(2-fluorophenyl)-1-(2-isopropyl-4-methylpyridin-3-yl)-4-(2-(oxirane-2-carbonyl)-2,7-diazaspiro[3.5]nonan-7-yl)pyrido[2,3-d]pyrimidin-2(1H)-one] gave an IC50 [1, 3] greater than 250 µM and an IC50 [2, 5] of 7.15 µM.

With `Cc1ccnc(C(C)C)c1-n1c(=O)nc(N2CC[C@@H](NC(=O)C3CO3)C2)c2cc(Cl)c(-c3ccccc3F)nc21` (stereo partly drawn) [Example 26, N—((R)-1-(6-Chloro-7-(2-fluorophenyl)-1-(2-isopropyl-4-methylpyridin-3-yl)-2-oxo-1,2-dihydropyrido[2,3-d]pyrimidin-4-yl)pyrrolidin-3-yl)oxirane-2-carboxamide] the IC50 [1, 3] was greater than 250 µM, the IC50 [2, 4] was 194 µM and the IC50 [2, 5] was 2.99 µM.

Work on `Cc1ccnc(C(C)C)c1-n1c(=O)nc(N2CC(NC(=O)C3CO3)C2)c2cc(Cl)c(-c3ccccc3F)nc21` (stereo not shown) [Example 27] yielded an IC50 [1, 3] greater than 250 µM, an IC50 [2, 4] of 4.41 µM and an IC50 [2, 5] of 0.018 µM.
